The record followed here is US5362738A, “Tricyclic pyridone derivatives” (Hoffmann-La Roche Inc., priority 1990, dated 1994).

The test system of data set [1] is spasmodic seizures caused by pentetrazole. The experiment in a line: antipentetrazole test (oral, mice). Type of data set: in vivo. The note with it: Mus musculus, 0.5 h, p.o., 120 mg/kg pentetrazole i.p. 30 minutes later, 10 animals per dosage, Probit method, dosage protecting 50% of animals. The protocol: As mentioned above, the compounds of formula I have valuable pharmacological properties. In particular, they display pronounced muscle relaxant, sedative-hypnotic, anticonvulsive and/or anxiolytic properties and have a low toxicity.
(§1) In this animal experiment the compound under investigation is administered orally to mice and 30 minutes later there are administered intraperitoneally 120 mg/kg of pentetrazole, which causes emprosthotonus and tonic stretchings of the fore and/or hind limbs in unprotected animals 1-4 minutes after the injection. 10 experimental animals are used per dosage of test substance. After counting the protected experimental animals the ED50 is determined according to the Probit method. The ED50 is that dosage which protects 50% of the experimental animals from the spasmodic seizures caused by pentetrazole. The results which have been obtained with representative members of the class of compound defined by formula I in the experiment described previously are compiled in the following Table. Moreover, the Table contains data concerning the acute toxicity (LD50) of some of these compounds in mg/kg in the case of single oral administration to mice.

A short description of data set [2]: acute toxicity (LD50), single oral administration to mice. The note with it: mouse, in vivo, p.o. The method, then: as §1

On to `COC1CN(C(=O)c2cc(-c3ccccc3)c(=O)n3c2-c2sccc2C3)C1` [H, 3-MeO-azetidino, --S--CH=CH--, 1-[(4,6-dihydro-6-oxo-7-phenylthieno[2',3':3,4]pyrrolo[1,2-a]pyridin-9-yl)-carbonyl]-3-methoxyazetidine], for which the ED50 (as a rule, the dose that gives a 50% effect, or the effect in half of the subjects) in data set [1] was 2.1 mg/kg. Besides, in data set [2], the median lethal dose (LD50) – broadly, the dose expected to kill half of the subjects tested – came to 2500 mg/kg. Take `CN(C)C(=O)c1cc(-c2ccccc2)c(=O)n2c1-c1ccccc1C2` [H, Me2 N--, --CH=CH--CH=CH--, N,N-dimethyl-4,6-dihydro-4-oxo-3-phenylpyrido[2,1-a]isoindole-1-carboxamide]: in data set [1], the ED50 amounted to 0.73 mg/kg. This compound showed an LD50 in data set [2] of 375 mg/kg. In data set [1], `COC1CN(C(=O)c2cc(-c3ccccc3)c(=O)n3c2-c2ccccc2C3)C1` [H, 3-MeO-azetidino, --CH=CH--CH=CH--, 1-[(4,6-dihydro-4-oxo-3-phenylpyrido[2,1-a]isoindol-1-yl)carbon-yl]-3-methoxyazetidine] displayed a median effective dose (ED50) of 0.39 mg/kg. `CO[C@H]1CCN(C(=O)c2cc(-c3ccccc3)c(=O)n3c2-c2sccc2C3)C1` [H, 3-MeO-pyrrolidino, --S--CH=CH--, (S)-1-[(4,6-dihydro-6-oxo-7-phenylthieno[2',3':3,4]pyrrolo[1,2-a]-pyridin-9-yl)carbonyl]-3-methoxypyrrolidine] had an ED50 in data set [1] of 1.7 mg/kg. The LD50 in data set [2] worked out at 375 mg/kg. The like results for `CN1CCN(C(=O)c2cc(-c3ccccc3)c(=O)n3c2-c2ccccc2C3)CC1.Cl` [H, 4-Me-piperazino, --CH=CH--CH=CH--, 1-[(4,6-dihydro-4-oxo-3-phenylpyrido[2,1-a]isoindol-1-yl)carbonyl]-4-methyl-piperazine hydrochloride] were, in that order, 5.7 mg/kg and 312 mg/kg. The compound `COC[C@H]1CCCN1C(=O)c1cc(-c2ccccc2)c(=O)n2c1-c1ccccc1C2` [H, (R)-2-MeOCH2 --Py--, --CH=CH--CH=CH--, (R)-1-[[4,6-dihydro-4-oxo-3-phenylpyrido[2,1-a]isoindol-1-yl]carbonyl]-2-(methoxymethyl)pyrrolidine] yielded a 50% effective dose (ED50) in data set [1] of 2.3 mg/kg. The compound also yielded an LD50 in data set [2] of 1500 mg/kg. Compound `COC1CN(C(=O)c2cc(-c3ccccc3)c(=O)n3c2-c2c(Cl)cccc2C3)C1` [H, 3-MeO-azetidino, --CCl=CH--CH=CH--, 1-[(10-chloro-4,6-dihydro-4-oxo-3-phenylpyrido[2,1-a]isoindol-1-yl)carbonyl]-3-methoxyazetidine] returned an ED50 in data set [1] of 2.2 mg/kg. The compound `O=C(c1cc(-c2ccccc2)c(=O)n2c1-c1sccc1C2)N1CCOCC1` [H, Morpholino, --S--CH=CH--, 4-[(4,6-dihydro-6-oxo-7-phenylthieno[2',3':3,4]pyrrolo[1,2-a]pyridin-9-yl)carbonyl]-morpholine] displayed a median effective dose (ED50) in data set [1] of 1.32 mg/kg. Besides, the LD50 in data set [2] is 5000 mg/kg. For `COC[C@H]1CCCN1C(=O)c1cc(-c2ccccc2)c(=O)n2c1-c1sccc1C2` [H, (R)-2-MeOCH2 --Py--, --S--CH=CH--, (R)-1-[(4,6-dihydro-6-oxo-7-phenylthieno[2',3':3,4]pyrrolo[1,2-a]pyridin-9-yl)carbonyl]-2-(methoxymethyl)pyrrolidine] the same measures were 0.76 mg/kg and 625 mg/kg.
